Where two headings read alike, the source gives them in different places.

Assay [1] relates to Fusarium. The assay can be described thus: Effect on Fusarium (Spore Growth) in vitro study. The assay is classed as cell-based, Fusarium culmorum. As to the method:
(§1) Sensitivity towards Tebuconazole (control) and Biocides A and B (see tables 1A and 1B) respectively, was tested in petri dishes using spore suspension containing 2.5×10^4 spores/ml of each fungal isolate or a mycelium block. 5-6 different concentrations of Biocide A and B respectively, as outlined in table 3 below were used in the tests.
(§2) For the tests, the two biocides A and B where individually mixed with potato dextrose broth to achieve the appropriate test concentration. Percent inhibition was assessed after a few days depending on the fungi and its growth rates measured in relation to control.

Assay [2] concerns Puccinia striiformis f. sp. tritici (Pst). The assay can be described thus: Indoor greenhouse study, stripe (yellow) rust, preventive and curative. The assay is classed as in vivo. Particulars: preventive spray one day prior to infection, curative three days later; 30, 100, 300, 1000 ppm; evaluated 16 days later. The source says:
In this study we used tebuconazole as fungicidal reference (control) and the above outlined biocide A and B compositions for testing the effect on Stripe (yellow) rust, caused by Puccinia striiformis f. sp. tritici (Pst). The applied method also tests preventive and curative effects of the elected fungicide compositions.
The scale used is 0=no attack;
1=necrose with a few pustules; 5=half of the infected leafs are attacked by pustules; 10=100% attack of the leafs.
The leafs were sprayed preventive one day prior to infection with Stripe (yellow) rust. Three days later the plants were sprayed for curative purposes.
16 days later the plant were evaluated.
The following doses were used for both preventive and curative experiments: 30, 100, 300, 1000 ppm

The subject of assay [3] is Fusarium. Put plainly: Effect on Fusarium (Mycelie Growth) in vitro study. The assay is classed as cell-based, Fusarium culmorum. As to the method:
as §1, §2

For assay [4], the system named is Septoria tritici.

Regarding `CC(C)(C)C(O)(CCc1ccc(Cl)cc1)Cn1cncn1` (stereo not shown) [Tebuconazole], the Growth in assay [1] (0.1 ppm) came out at 25%; in assay [1] (1 ppm), 0%; in assay [1] (3.3 ppm), 0%; in assay [1] (10 ppm), 0%; in assay [1] (33 ppm), 0%; in assay [1] (100 ppm), 0%. Besides, the Growth was 10% in assay [3] (0.1 ppm); 10% in assay [3] (1 ppm); 0% in assay [3] (3.3 ppm); 0% in assay [3] (10 ppm); 0% in assay [3] (33 ppm); 0% in assay [3] (100 ppm). In addition, the Growth in assay [4] (0.1 ppm) was 10%; in assay [4] (1 ppm), 5%; in assay [4] (3.3 ppm), 0%; in assay [4] (10 ppm) it was 0%; in assay [4] (33 ppm), 0%; in assay [4] (100 ppm), 0%. Moreover, the “effect on Stripe (yellow) rust attack” value in assay [2] is “able to eliminate the fungi attack both in a preventive and a curative manner”.

The values above are taken from US20180249713A1, “Composition for Protection of Plants, Fruit and Vegetables” (priority 2015, published 2018).
